Where two headings read alike, the source gives them in different places.
Assays:
[1] = system: LoVo (Colorectal Adenocarcinoma); test: Cell viability analysis, colon cancer LoVo; format: cell-based, human; conditions: Homo sapiens, LoVo
[2] = system: AGS (Gastric Adenocarcinoma); test: Cell viability analysis, gastric cancer AGS; format: cell-based, human; conditions: Homo sapiens
[3] = system: A549 (Lung Adenocarcinoma); test: Cell viability analysis, lung cancer A549; format: cell-based, human; conditions: Homo sapiens
[4] = system: HCT116 (p53+) (Colorectal Carcinoma); test: cells; conditions: Homo sapiens, HCT-116, 72 h, read-out: cell viability (survival rate), HCT116
[5] = system: HepG2 (Hepatocellular Carcinoma); test: Cell viability analysis, hepatic cancer HepG2; format: cell-based, human; conditions: Homo sapiens
[6] = system: PC3 (p53−) (Prostate Adenocarcinoma); test: Cell viability analysis, prostate cancer PC3; format: cell-based, human; conditions: Homo sapiens
[7] = system: MKN-45 (Gastric Adenocarcinoma); test: Cell viability analysis, gastric cancer MKN-45; format: cell-based, human; conditions: Homo sapiens, MKN-45, 72 h
[8] = system: HeLa (Cervix Adenocarcinoma); test: Cell viability analysis, cervical cancer HeLa; format: cell-based, human; conditions: Homo sapiens, HeLa
[9] = system: HL-60 (Acute Promyelocytic Leukemia); test: Cell viability analysis, leukemia HL-60; format: cell-based, human; conditions: Homo sapiens
[10] = system: HI650 (Lung Adenocarcinoma); test: Cell viability analysis, lung cancer HI650; format: cell-based, human; conditions: Homo sapiens
[11] = system: A375 (Amelanotic Melanoma); test: Cell viability analysis, skin cancer A375; format: cell-based, human; conditions: Homo sapiens
[12] = system: TSGH-8301 (Urinary Bladder Carcinoma); test: Cell viability analysis, bladder cancer TSGH-8301; format: cell-based, human; conditions: Homo sapiens
[13] = system: MCF7 (Mammary Gland, Adenocarcinoma); test: Cell viability analysis, breast cancer MCF7; format: cell-based, human; conditions: Homo sapiens
[14] = 72 h, read-out: cell viability (survival rate), LoVo, drug 10 μM, 72 hours, WST-1, OD450 nm
[15] = 72 h, drug 10 μM, 72 hours, WST-1, OD450 nm, read-out: cell viability (survival rate), AGS
[16] = A549, 72 h, drug 10 μM, 72 hours, WST-1, OD450 nm, read-out: cell viability (survival rate), A549
[17] = HepG2, 72 h, drug 10 μM, 72 hours, WST-1, OD450 nm, read-out: cell viability (survival rate), HepG2
[18] = 72 h, drug 10 μM, 72 hours, WST-1, OD450 nm, read-out: cell viability (survival rate), PC3
[19] = drug 10 μM, 72 hours, WST-1, OD450 nm, read-out: cell viability (survival rate), MKN-45
[20] = 72 h, drug 10 μM, 72 hours, WST-1, OD450 nm, read-out: cell viability (survival rate), HeLa
[21] = HL-60, 72 h, drug 10 μM, 72 hours, WST-1, OD450 nm, read-out: cell viability (survival rate), HL-60
[22] = NCI-H1650, 72 h, drug 10 μM, 72 hours, WST-1, OD450 nm, read-out: cell viability (survival rate), H1650
[23] = A-375, 72 h, drug 10 μM, 72 hours, WST-1, OD450 nm, read-out: cell viability (survival rate), A375
[24] = 72 h, read-out: cell viability (survival rate), AGS, drug 10 μM, 72 hours, WST-1, OD450 nm
[25] = A549, 72 h, read-out: cell viability (survival rate), A549, drug 10 μM, 72 hours, WST-1, OD450 nm
[26] = 72 h, read-out: cell viability (survival rate), TSGH, drug 10 μM, 72 hours, WST-1, OD450 nm
[27] = HepG2, 72 h, read-out: cell viability (survival rate), HepG2, drug 10 μM, 72 hours, WST-1, OD450 nm
[28] = MCF7, 72 h, read-out: cell viability (survival rate), MCF7, drug 10 μM, 72 hours, WST-1, OD450 nm
[29] = 72 h, read-out: cell viability (survival rate), PC3, drug 10 μM, 72 hours, WST-1, OD450 nm
[30] = 72 h, read-out: cell viability (survival rate), HeLa, drug 10 μM, 72 hours, WST-1, OD450 nm
[31] = HL-60, 72 h, read-out: cell viability (survival rate), HL-60, drug 10 μM, 72 hours, WST-1, OD450 nm
[32] = NCI-H1650, 72 h, read-out: cell viability (survival rate), H1650, drug 10 μM, 72 hours, WST-1, OD450 nm
[33] = A-375, 72 h, read-out: cell viability (survival rate), A375, drug 10 μM, 72 hours, WST-1, OD450 nm

Row | Compound | viability at 10 µM [1, 14] | viability at 10 µM [2, 15] | viability at 10 µM [3, 16] | viability at 10 µM [4] | viability at 10 µM [5, 17] | viability at 10 µM [6, 18] | viability at 10 µM [7, 19] | viability at 10 µM [8, 20] | viability at 10 µM [9, 21] | viability at 10 µM [10, 22] | viability at 10 µM [11, 23] | viability at 10 µM [2, 24] | viability at 10 µM [3, 25] | viability at 10 µM [12, 26] | viability at 10 µM [5, 27] | viability at 10 µM [13, 28] | viability at 10 µM [6, 29] | viability at 10 µM [8, 30] | viability at 10 µM [9, 31] | viability at 10 µM [10, 32] | also measured
1 | CCCCCCCCCCCCCCCCO [1-Hexadecanol] | 98.8% | 89.4% | 84% | 69.8% | 96% | 91.9% | 85.5% | 91.3% | 92.2% | 84.3% | 113% |  |  |  |  |  |  |  |  |  | 
2 | CC(=O)Nc1ncc([N+](=O)[O-])s1 [Nithiamide] | 89.8% | 102% | 39.3% | 86.9% | 94.8% | 74.5% | 76.7% | 83% | 102% | 67.1% | 96.7% |  |  |  |  |  |  |  |  |  | viability at 10 µM ([12]; 72 h, drug 10 μM, 72 hours, WST-1, OD450 nm, read-out: cell viability (survival rate), TSGH): 122%; viability at 10 µM ([13]; MCF7, 72 h, drug 10 μM, 72 hours, WST-1, OD450 nm, read-out: cell viability (survival rate), MCF7): 65.5%
3 | O=c1cc[nH]c(=O)[nH]1 [Uracil] | 70.2% |  |  | 94.3% |  |  |  |  |  |  |  | 82.9% | 80.5% | 104% | 100% | 103% | 163% | 107% | 98.7% | 91.8% | viability at 10 µM [11, 33]: 98.2%
4 | COC(=O)C1=CO[C@@H](O)[C@@H]2C(CO)=CC[C@H]12 [Genipin] |  |  |  | 82.7% |  |  |  |  |  |  |  | 49.6% | 61.8% | 67.7% | 87.1% | 71.7% | 71.6% | 74.5% | 117% | 69.5% | viability at 10 µM ([7]; read-out: cell viability (survival rate), MKN-45, drug 10 μM, 72 hours, WST-1, OD450 nm): 54.1%; viability at 10 µM [11, 33]: 78%
5 | CNC[C@H](O)[C@@H](O)[C@H](O)[C@H](O)CO [Meglumine] |  |  |  | 92.7% |  |  |  |  |  |  |  |  |  |  |  |  |  |  |  |  | viability at 10 µM ([1]; drug 10 μM, 72 hours, WST-1, OD450 nm, read-out: cell viability (survival rate), LoVo): 78.4%; viability at 10 µM ([2]; drug 10 μM, 72 hours, WST-1, OD450 nm, read-out: cell viability (survival rate), AGS): 95%; viability at 10 µM ([3]; A549, drug 10 μM, 72 hours, WST-1, OD450 nm, read-out: cell viability (survival rate), A549): 108%; viability at 10 µM ([12]; drug 10 μM, 72 hours, WST-1, OD450 nm, read-out: cell viability (survival rate), TSGH): 109%; viability at 10 µM ([5]; HepG2, drug 10 μM, 72 hours, WST-1, OD450 nm, read-out: cell viability (survival rate), HepG2): 90.8%; viability at 10 µM ([13]; MCF7, drug 10 μM, 72 hours, WST-1, OD450 nm, read-out: cell viability (survival rate), MCF7): 97%; viability at 10 µM ([6]; drug 10 μM, 72 hours, WST-1, OD450 nm, read-out: cell viability (survival rate), PC3): 76.8%; viability at 10 µM ([8]; drug 10 μM, 72 hours, WST-1, OD450 nm, read-out: cell viability (survival rate), HeLa): 74.1%; viability at 10 µM ([9]; HL-60, drug 10 μM, 72 hours, WST-1, OD450 nm, read-out: cell viability (survival rate), HL-60): 114%; viability at 10 µM ([10]; NCI-H1650, drug 10 μM, 72 hours, WST-1, OD450 nm, read-out: cell viability (survival rate), H1650): 62%; viability at 10 µM ([11]; A-375, drug 10 μM, 72 hours, WST-1, OD450 nm, read-out: cell viability (survival rate), A375): 78.2%

Source: patent US10105357B2, “Indication of antibiotic drugs for preparation of cancer inhibition pharmaceutical composition” (LAUNX BIOMEDICAL CO., LTD., priority 2014, dated 2018)
